Data published in patent publication US20260071190A1, “SARS CORONAVIRUS 2 R[…] […] GENES, DERIVED FROM GH CLADE SARS CORONAVIRUS 2 OF KOREAN ISOLATE, AND THE PRODUCTION METHOD THEREFOR” (RpexBio, Inc., priority 2022, published 2026).

Test system: rSARS-COV-2/YS006_Nluc P2 virus (YS006_spike)
Type: cell-based, SARS coronavirus 2

Question: `CC(C)(C)[C@H](NC(=O)C(F)(F)F)C(=O)N1C[C@H]2[C@@H]([C@H]1C(=O)N[C@H](C#N)C[C@@H]1CCNC1=O)C2(C)C` [PF-07321332] was tested. Which “antiviral activity against YS006_spike reporter virus” value did it give?
Answer: high antiviral activity

Question: And the “inhibitory effect compared among cell lines” value (A549_ACE2 cells versus Calu-3 and Vero E6, FIG. 6B)?
Answer: strongest inhibitory effect
